“Also recorded” adds a separate entry of the source. Read-outs that look alike come from different tables or passages of the source.
What was measured:
[1] = Example 10: co-treatment with zonisamide in rodent model of olanzapine-induced weight gain (body weight, food intake); assay type: in vivo, Sprague-Dawley rats
Protocol: Female Sprague-Dawley rats, weighing about 235 grams at the start of the experiment were used. They were trained to sham injections, using the zonisamide vehicle for 2 weeks before the study commenced. Under isoflurane anesthesia, Alzet osmotic minipumps (2 ml2) were implanted subcutaneously, between the shoulder blades. The rats were subsequently returned to their home cages after recovery. The minipumps delivered 5 μL per hour for 14 days. […] The animals were housed individually and supplied with standard laboratory chow. Food consumed and animal weights were recorded every days. […] Rats were allowed to recover after pump implantation, and then received twice daily injections of zonisamide 26 mg/kg.

[2] = Example 11: zonisamide started one week after olanzapine pump implantation in rodent model of olanzapine-induced weight gain; assay type: in vivo, rats
Protocol: Female Sprague-Dawley rats, weighing about 235 grams at the start of the experiment were used. They were trained to sham injections, using the zonisamide vehicle for 2 weeks before the study commenced. Under isoflurane anesthesia, Alzet osmotic minipumps (2 ml2) were implanted subcutaneously, between the shoulder blades. The rats were subsequently returned to their home cages after recovery. The minipumps delivered 5 μL per hour for 14 days. Olanzapine was dissolved in 1.5% lactic acid in dH2O. Zonisamide was dissolved in 10% DMSO, 13.4% EtOH, 20.1% PPG, and […]. Olanzapine dose was 1.75 mg/day via the minipump. The animals were housed individually and supplied with standard laboratory chow. Food consumed and animal weights were recorded every days. There were 5 animals in the control (vehicle) group, 5 animals in the zonisamide only group, 4 animals in the olanzapine only group, and 6 animals in the olanzapine+zonisamide group.
Rats were allowed to recover after pump implantation, and then received twice daily injections of zonisamide 26 mg/kg. Their food intake and body weight were calculated daily for 15 days.
The protocol used was the same as described in Example 12, with the exception that the treatment with zonisamide began one week after implantation of the olanzapine osmotic pumps, and food intake and body weight were calculated daily for 10 days.

[3] = Example 13 case study: zonisamide in patient with weight gain on paroxetine and risperidone; assay type: in vivo, human
Protocol: They were therefore started on zonisamide 100 mg, increased to 200 mg. […] The dose was then increased to 300 mg and then to 600 mg.

[4] = Example 14 case study: bupropion and zonisamide added to olanzapine and valproate; assay type: in vivo, human
Protocol: At this point, zonisamide was added to their medication regimen at 100 mg/day and the dose was increased to 200 mg/day after two weeks.

[5] = tested on: Proopiomelanocortin (POMC) neurons; test: Electrophysiology: action current frequency of POMC neurons in brain slices, loose cell attached patch; assay type: cell-based, POMC-EGFP mice; conditions: for frequency of action currents (activity) of POMC neurons: zonisamide 10 μM, FIG. 1
Protocol: The electrophysiological activity of Proopiomelanocortin (POMC) neurons in brain slices from POMC-EGFP mice was recorded. The POMC neurons in these mice are identified by the expression of green fluorescent protein (EGFP) in these, and only these, cells. The frequency of action potentials in these neurons were recorded using standard electrophysiological techniques. In particular, loose cell attached patch configuration is used to determine action current frequency, whilst minimally disturbing the cells.
The basal activity was recorded, and then olanzapine (100 nM) was added to the tissue bath to determine the effect of olanzapine on the activity of POMC neurons. […] Then the effect of zonisamide on the reduction in activity caused by […] was tested by adding olanzapine plus zonisamide (10 μM) to the bath.

[6] = Example 12 case study: zonisamide added to clonazepam, fluoxetine and lamotrogine, bipolar patient; assay type: in vivo, human; conditions: zonisamide 100 mg qD added to clonazepam, fluoxetine, lamotrogine; person
Protocol: A person having biopolar disorder, Type I, had been treated for just over year by their psychiatrist using clonazepam 1 mg qHS, fluoxetine 20 mg qd, and lamotrogine 300 mg qD. One particular complaint was that they had “constant thoughts of eating”. Their psychiatrist started them on zonisamide 100 mg qD. […] The dose was continued and despite multiple stressors at home, they continued to do well on the treatment regimen.

[7] = cited from earlier work
[8] = Day 1.00, rats, olanzapine 1.75 mg/day minipump, zonisamide 26 mg/kg twice daily
[9] = Day 7.00, rats, zonisamide begun one week after olanzapine pump implantation
[10] = zonisamide added to olanzapine, valproate, bupropion

Cc1cc2c(s1)Nc1ccccc1N=C2N1CCN(C)CC1 [Olanzapine, olanzapine]
Change in Food Intake Post Pump Implant, Mean [1, 8]: 16.56
Cumulative Change in Body Weight, Mean [1, 8]: 7.44
Change in Food Intake Post Pump Implant, Mean ([1]; Day 2.00): 39.82
Cumulative Change in Body Weight, Mean ([1]; Day 4.00): 21.04
Change in Food Intake Post Pump Implant, Mean ([1]; Day 5.00): 62.30
Cumulative Change in Body Weight, Mean ([1]; Day 5.00): 19.22
Change in Food Intake Post Pump Implant, Mean ([1]; Day 6.00): 86.14
Cumulative Change in Body Weight, Mean ([1]; Day 6.00): 20.56
Change in Food Intake Post Pump Implant, Mean ([1]; Day 7.00): 105.74
Cumulative Change in Body Weight, Mean ([1]; Day 7.00): 30.88
Change in Food Intake Post Pump Implant, Mean ([1]; Day 8.00): 119.30
Cumulative Change in Body Weight, Mean ([1]; Day 8.00): 27.56
Change in Food Intake Post Pump Implant, Mean ([1]; Day 9.00): 144.98
Cumulative Change in Body Weight, Mean ([1]; Day 9.00): 32.94
Change in Food Intake Post Pump Implant, Mean ([1]; Day 10.00): 161.16
Cumulative Change in Body Weight, Mean ([1]; Day 10.00): 34.98
Change in Food Intake Post Pump Implant, Mean ([1]; Day 11.00): 180.96
Cumulative Change in Body Weight, Mean ([1]; Day 11.00): 33.40
Change in Food Intake Post Pump Implant, Mean ([1]; Day 12.00): 201.42
Cumulative Change in Body Weight, Mean ([1]; Day 12.00): 40.76
Change in Food Intake Post Pump Implant, Mean ([1]; Day 13.00): 224.38
Cumulative Change in Body Weight, Mean ([1]; Day 13.00): 38.84
Change in Food Intake Post Pump Implant, Mean ([1]; Day 14.00): 241.48
Cumulative Change in Body Weight, Mean ([1]; Day 14.00): 43.28
Cumulative Change in Body Weight, Mean ([1]; Day 15.00): 41.64
Cumulative Change in Body Weiglt Post-Pump Implant, Mean [2, 9]: −0.46
Cumulative Change in Food Intake Post-Pump Implant, Mean [2, 9]: 13.39
Cumulative Change in Body Weiglt Post-Pump Implant, Mean ([2]; Day 8.00): −11.55
Cumulative Change in Food Intake Post-Pump Implant, Mean ([2]; Day 8.00): 18.36
Cumulative Change in Body Weiglt Post-Pump Implant, Mean ([2]; Day 9.00): 4.28
Cumulative Change in Food Intake Post-Pump Implant, Mean ([2]; Day 9.00): 57.46
Cumulative Change in Body Weiglt Post-Pump Implant, Mean ([2]; Day 10.00): 11.88
Cumulative Change in Food Intake Post-Pump Implant, Mean ([2]; Day 10.00): 124.58
Cumulative Change in Body Weiglt Post-Pump Implant, Mean ([2]; Day 11.00): 13.48
Cumulative Change in Food Intake Post-Pump Implant, Mean ([2]; Day 11.00): 145.5
Cumulative Change in Body Weiglt Post-Pump Implant, Mean ([2]; Day 12.00): 11.8
Cumulative Change in Food Intake Post-Pump Implant, Mean ([2]; Day 12.00): 163.6
Cumulative Change in Body Weiglt Post-Pump Implant, Mean ([2]; Day 13.00): 15.55
Cumulative Change in Food Intake Post-Pump Implant, Mean ([2]; Day 13.00): 181.05
Cumulative Change in Body Weiglt Post-Pump Implant, Mean ([2]; Day 14.00): 20.4
Cumulative Change in Food Intake Post-Pump Implant, Mean ([2]; Day 14.00): 200.9
Cumulative Change in Body Weiglt Post-Pump Implant, Mean ([2]; Day 15.00): 17.98
Cumulative Change in Food Intake Post-Pump Implant, Mean ([2]; Day 15.00): 218.2
Cumulative Change in Body Weiglt Post-Pump Implant, Mean ([2]; Day 16.00): 21.22
Cumulative Change in Food Intake Post-Pump Implant, Mean ([2]; Day 16.00): 236.95

CC(NC(C)(C)C)C(=O)c1cccc(Cl)c1 (stereo not shown) [bupropion]
weight loss ([3]; trial of bupropion alone): did not cause significant weight loss
weight lost ([4]; bupropion 150 mg/day added to olanzapine and valproate, after 6 months): 23.6 lbs
adverse effect reported ([4]; bupropion dose raised to 300 mg/day): feeling hyperactive
weight regained ([4]; while continuing bupropion, over the next 10 months): 10.6 lbs

NS(=O)(=O)Cc1noc2ccccc12 [Zonisamide, zonisamide]
Change in Food Intake Post Pump Implant, Mean [1, 8]: 12.48
Cumulative Change in Body Weight, Mean [1, 8]: 9.74
Change in Food Intake Post Pump Implant, Mean ([1]; Day 2.00): 30.10
Cumulative Change in Body Weight, Mean ([1]; Day 4.00): 20.24
Change in Food Intake Post Pump Implant, Mean ([1]; Day 5.00): 46.02
Cumulative Change in Body Weight, Mean ([1]; Day 5.00): 17.60
Change in Food Intake Post Pump Implant, Mean ([1]; Day 6.00): 58.24
Cumulative Change in Body Weight, Mean ([1]; Day 6.00): 19.34
Change in Food Intake Post Pump Implant, Mean ([1]; Day 7.00): 72.10
Cumulative Change in Body Weight, Mean ([1]; Day 7.00): 20.18
Change in Food Intake Post Pump Implant, Mean ([1]; Day 8.00): 86.88
Cumulative Change in Body Weight, Mean ([1]; Day 8.00): 17.32
Change in Food Intake Post Pump Implant, Mean ([1]; Day 9.00): 104.86
Cumulative Change in Body Weight, Mean ([1]; Day 9.00): 13.66
Change in Food Intake Post Pump Implant, Mean ([1]; Day 10.00): 123.66
Cumulative Change in Body Weight, Mean ([1]; Day 10.00): 14.62
Change in Food Intake Post Pump Implant, Mean ([1]; Day 11.00): 140.40
Cumulative Change in Body Weight, Mean ([1]; Day 11.00): 16.46
Change in Food Intake Post Pump Implant, Mean ([1]; Day 12.00): 160.36
Cumulative Change in Body Weight, Mean ([1]; Day 12.00): 21.08
Change in Food Intake Post Pump Implant, Mean ([1]; Day 13.00): 177.70
Cumulative Change in Body Weight, Mean ([1]; Day 13.00): 24.26
Change in Food Intake Post Pump Implant, Mean ([1]; Day 14.00): 186.25
Cumulative Change in Body Weight, Mean ([1]; Day 14.00): 27.52
Cumulative Change in Body Weight, Mean ([1]; Day 15.00): 25.70
effect on the weight gain associated with olanzapine ([1]; zonisamide added to concomitant olanzapine treatment, rats): decrease the weight gain associated with olanzapine
Cumulative Change in Body Weiglt Post-Pump Implant, Mean [2, 9]: −1.73
Cumulative Change in Food Intake Post-Pump Implant, Mean [2, 9]: 13.15
Cumulative Change in Body Weiglt Post-Pump Implant, Mean ([2]; Day 8.00): −11.38
Cumulative Change in Food Intake Post-Pump Implant, Mean ([2]; Day 8.00): 18.62
Cumulative Change in Body Weiglt Post-Pump Implant, Mean ([2]; Day 9.00): −1.28
Cumulative Change in Food Intake Post-Pump Implant, Mean ([2]; Day 9.00): 46.87
Cumulative Change in Body Weiglt Post-Pump Implant, Mean ([2]; Day 10.00): 5.8
Cumulative Change in Food Intake Post-Pump Implant, Mean ([2]; Day 10.00): 101.08
Cumulative Change in Body Weiglt Post-Pump Implant, Mean ([2]; Day 11.00): 6.37
Cumulative Change in Food Intake Post-Pump Implant, Mean ([2]; Day 11.00): 116.93
Cumulative Change in Body Weiglt Post-Pump Implant, Mean ([2]; Day 12.00): 0.86
Cumulative Change in Food Intake Post-Pump Implant, Mean ([2]; Day 12.00): 126.64
Cumulative Change in Body Weiglt Post-Pump Implant, Mean ([2]; Day 13.00): −4.79
Cumulative Change in Food Intake Post-Pump Implant, Mean ([2]; Day 13.00): 133.95
Cumulative Change in Body Weiglt Post-Pump Implant, Mean ([2]; Day 14.00): −11.79
Cumulative Change in Food Intake Post-Pump Implant, Mean ([2]; Day 14.00): 141.09
Cumulative Change in Body Weiglt Post-Pump Implant, Mean ([2]; Day 15.00): −10.3
Cumulative Change in Food Intake Post-Pump Implant, Mean ([2]; Day 15.00): 153.61
Cumulative Change in Body Weiglt Post-Pump Implant, Mean ([2]; Day 16.00): −9.37
Cumulative Change in Food Intake Post-Pump Implant, Mean ([2]; Day 16.00): 167.93
effect on olanzapine-induced weight gain ([2]; zonisamide one week after implantation of olanzapine pumps, rats): decrease the weight gain associated with olanzapine; also recorded: reversed olanzapine-induced weight gain
activity of POMC neurons inhibited by olanzapine ([5]; olanzapine plus zonisamide (10 μM) in the bath, FIG. 3): reversed the inhibition of POMC neurons
frequency of action currents (activity) of POMC neurons [5]: reversibly increased the activity of POMC neurons
frequency of action currents (activity) of POMC neurons ([5]; listed as zonisamide): increases the activity of POMC neurons
craving for food [6]: significantly reduced their craving for food
weight gain [6]: prevented weight gain
psychiatric symptoms ([3]; on zonisamide): improved
weight lost ([3]; zonisamide 100 mg, increased to 200 mg, in 3 weeks): 12 pounds
weight ([3]; zonisamide increased to 300 mg and then 600 mg, in 5 months): returned to baseline
weight lost ([4]; zonisamide 100 mg/day, 200 mg/day after two weeks, added to regimen, over the next 4 months): 15 lbs
adverse effects reported [4, 10]: no adverse effects
bipolar disorder symptoms [4, 10]: remained free of bipolar disorder symptoms
weight loss ([7]; patients presenting with primary obesity): significant weight loss
tolerability ([7]; versus placebo treatment): well tolerated

Source: patent publication US20070185084A1, “COMPOSITIONS OF AN ANTICONVULSANT AND METHODS OF USING THE SAME FOR REVERSING WEIGHT GAIN” (Orexigen Therapeutics, Inc., priority 2006, published 2007)
